Publication PMC11820409, “Synthesis and Evaluation of the AhR Activity of Indolo[3,2-b]carbazole Derivatives” (Molecules, 2025)
Read-outs that look alike come from different tables or passages of the source.

Assays:
AhR [1] = biological target: T1, AhR (Homo sapiens, UniProt P35869); assay: AhR induction, luciferase reporter gene (CALUX), human HG2L7.5c1 cells; format: cell-based; conditions: 6 h incubation
T1 construct: cells that were stably transfected with a luciferase reporter gene; endogenous in cells; host or cells: HG2L7.5c1 (human)
T1 sequence (P35869 11-848): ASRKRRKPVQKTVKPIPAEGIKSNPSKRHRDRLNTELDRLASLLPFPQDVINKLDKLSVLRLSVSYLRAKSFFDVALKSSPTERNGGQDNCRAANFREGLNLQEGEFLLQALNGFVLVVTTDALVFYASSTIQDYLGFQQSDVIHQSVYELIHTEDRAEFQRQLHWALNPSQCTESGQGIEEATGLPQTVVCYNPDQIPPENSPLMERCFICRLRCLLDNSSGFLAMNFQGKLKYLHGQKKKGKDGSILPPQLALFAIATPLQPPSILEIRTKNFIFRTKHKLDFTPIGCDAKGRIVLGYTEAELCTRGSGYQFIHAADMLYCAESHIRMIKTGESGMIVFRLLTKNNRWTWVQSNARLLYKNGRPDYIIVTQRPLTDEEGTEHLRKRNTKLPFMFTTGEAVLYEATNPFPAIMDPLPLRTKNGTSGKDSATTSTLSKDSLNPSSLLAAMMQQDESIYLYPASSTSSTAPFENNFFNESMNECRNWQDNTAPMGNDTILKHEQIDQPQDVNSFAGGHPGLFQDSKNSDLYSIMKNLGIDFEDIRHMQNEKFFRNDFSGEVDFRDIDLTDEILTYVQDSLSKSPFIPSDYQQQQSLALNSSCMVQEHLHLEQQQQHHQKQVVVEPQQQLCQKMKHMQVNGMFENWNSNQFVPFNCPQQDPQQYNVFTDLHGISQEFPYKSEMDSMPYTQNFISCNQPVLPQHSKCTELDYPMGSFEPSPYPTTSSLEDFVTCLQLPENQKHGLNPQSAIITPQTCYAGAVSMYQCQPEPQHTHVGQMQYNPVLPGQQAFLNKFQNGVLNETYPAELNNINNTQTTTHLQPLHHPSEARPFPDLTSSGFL
Procedure: The synthesized alkaloids were evaluated for their ability to induce AhR in four different cell lines, more specifically in human (HG2L7.5c1), mouse (H1L7.5c3), rat (H4L7.5c2) and guinea pig (G16L7.5c1) cells that were stably transfected with a luciferase reporter gene [41]. The results were calculated in EC50 (M) and compared to those of dioxin (TCDD), the principal ligand of the receptor.
Human, mouse, rat and guinea pig cells were grown in 100 mm cell culture plates (Corning Glass Works; Corning, NY, USA) using a sterile technique, maintained in alpha-minimum essential media (α-MEM) supplemented with 10% (v/v) fetal bovine serum (FBS) and G418 (1 mg/mL), and incubated at >80% humidity and 37◦C. For the CALUX analysis, plates of stable cell clones (approximately 80–100% confluent) were trypsinized and resuspended in 20 mL α-MEM. An aliquot (100 μL) of the indicated cell suspension was added into sterile 96-well tissue culture plates (Corning), and the plates were incubated for 24 h prior to ligand exposure, allowing the cells to reach confluence. […] Luciferase activity was measured using an automated microplate luminometer (Anthos Lucy2, Anthos Labtec Instruments, Wals/Salzburg, Austria) in enhanced flash mode with the automatic injection of 50 μL of Promega-stabilized luciferase reagent.

AhR [2] = biological target: T2, AhR (Rattus norvegicus, UniProt P41738); assay: AhR induction, luciferase reporter gene (CALUX), rat H4L7.5c2 cells; format: cell-based; conditions: 6 h incubation
T2 construct: cells that were stably transfected with a luciferase reporter gene; endogenous in cells; host or cells: H4L7.5c2 (rat)
T2 sequence (P41738 10-853): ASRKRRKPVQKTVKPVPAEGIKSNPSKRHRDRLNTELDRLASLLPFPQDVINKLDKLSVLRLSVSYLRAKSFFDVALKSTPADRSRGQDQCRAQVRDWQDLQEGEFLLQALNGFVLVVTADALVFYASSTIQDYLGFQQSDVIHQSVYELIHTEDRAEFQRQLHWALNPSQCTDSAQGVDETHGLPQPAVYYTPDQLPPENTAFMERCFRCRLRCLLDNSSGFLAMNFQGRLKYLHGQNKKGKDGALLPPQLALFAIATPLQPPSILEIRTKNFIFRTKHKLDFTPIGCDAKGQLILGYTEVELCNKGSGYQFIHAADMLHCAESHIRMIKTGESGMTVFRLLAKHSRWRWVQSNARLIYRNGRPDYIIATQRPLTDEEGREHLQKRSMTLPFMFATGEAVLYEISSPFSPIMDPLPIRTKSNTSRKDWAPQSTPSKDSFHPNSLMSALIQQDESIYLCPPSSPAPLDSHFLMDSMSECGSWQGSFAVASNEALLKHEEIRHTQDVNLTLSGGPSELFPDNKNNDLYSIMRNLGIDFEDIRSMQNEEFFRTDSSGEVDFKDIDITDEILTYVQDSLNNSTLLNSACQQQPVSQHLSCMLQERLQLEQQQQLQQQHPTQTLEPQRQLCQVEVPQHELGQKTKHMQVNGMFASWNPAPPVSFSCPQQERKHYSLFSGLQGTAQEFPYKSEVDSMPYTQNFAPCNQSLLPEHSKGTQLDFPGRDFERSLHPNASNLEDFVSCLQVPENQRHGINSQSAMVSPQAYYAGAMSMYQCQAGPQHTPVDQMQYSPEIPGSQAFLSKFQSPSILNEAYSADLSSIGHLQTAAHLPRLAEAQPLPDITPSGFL
Procedure: (§1) The activity on AhR of the synthesized compounds was evaluated in cells that were stably transfected with a luciferase reporter gene. They were tested in four different cell lines, namely in human (HG2L7.5c1), mouse (H1L7.5c3), rat (H4L7.5c2) and guinea pig (G16L7.5c1) cells.
(§2) The synthesized alkaloids were evaluated for their ability to induce AhR in four different cell lines, more specifically in human (HG2L7.5c1), mouse (H1L7.5c3), rat (H4L7.5c2) and guinea pig (G16L7.5c1) cells that were stably transfected with a luciferase reporter gene. The results were calculated in EC50 (M) and compared to those of dioxin (TCDD), the principal ligand of the receptor. The protocol followed is described below.
(§3) Human, mouse, rat and guinea pig cells were grown in 100 mm cell culture plates (Corning Glass Works; Corning, NY, USA) using a sterile technique, maintained in alpha-minimum essential media (α-MEM) supplemented with 10% (v/v) fetal bovine serum (FBS) and G418 (1 mg/mL), and incubated at >80% humidity and 37◦C. For the CALUX analysis, plates of stable cell clones (approximately 80–100% confluent) were trypsinized and resuspended in 20 mL α-MEM. An aliquot (100 μL) of the indicated cell suspension was added into sterile 96-well tissue culture plates (Corning), and the plates were incubated for 24 h prior to ligand exposure, allowing the cells to reach confluence. Prior to ligand addition, the wells were washed with 1 × phosphate-buffered saline (PBS), and then, cells were incubated with the indicated concentration of DMSO (10 μL/mL) or corresponding solutions of TCDD or tested compounds in DMSO for 6 h or 24 h at 37 °C. After incubation, the cells were washed twice with PBS, 100 μL of 1 × Lysis buffer (Promega; Madison, WI, USA) was added to each well, and the plate was placed on a plate shaker at room temperature until the cells were lysed (approximately 20 min). Luciferase activity was measured using an automated microplate luminometer (Anthos Lucy2, Anthos Labtec Instruments, Wals/Salzburg, Austria) in enhanced flash mode with the automatic injection of 50 μL of Promega-stabilized luciferase reagent. Examples of the induction curves of the tested compounds are available in the Supplementary Materials.

AhR [3] = tested on: AhR; parameters: method as in PMID 31292477; conditions: fold reduction vs 6-FICZ; cited from earlier work
AhR [4] = biological target: T3, AhR (Mus musculus, UniProt P30561); assay: AhR induction, luciferase reporter gene (CALUX), mouse H1L7.5c3 cells; format: cell-based
T3 construct: cells that were stably transfected with a luciferase reporter gene; endogenous in cells; host or cells: H1L7.5c3 (mouse)
T3 sequence (P30561 10-805 limits assumed): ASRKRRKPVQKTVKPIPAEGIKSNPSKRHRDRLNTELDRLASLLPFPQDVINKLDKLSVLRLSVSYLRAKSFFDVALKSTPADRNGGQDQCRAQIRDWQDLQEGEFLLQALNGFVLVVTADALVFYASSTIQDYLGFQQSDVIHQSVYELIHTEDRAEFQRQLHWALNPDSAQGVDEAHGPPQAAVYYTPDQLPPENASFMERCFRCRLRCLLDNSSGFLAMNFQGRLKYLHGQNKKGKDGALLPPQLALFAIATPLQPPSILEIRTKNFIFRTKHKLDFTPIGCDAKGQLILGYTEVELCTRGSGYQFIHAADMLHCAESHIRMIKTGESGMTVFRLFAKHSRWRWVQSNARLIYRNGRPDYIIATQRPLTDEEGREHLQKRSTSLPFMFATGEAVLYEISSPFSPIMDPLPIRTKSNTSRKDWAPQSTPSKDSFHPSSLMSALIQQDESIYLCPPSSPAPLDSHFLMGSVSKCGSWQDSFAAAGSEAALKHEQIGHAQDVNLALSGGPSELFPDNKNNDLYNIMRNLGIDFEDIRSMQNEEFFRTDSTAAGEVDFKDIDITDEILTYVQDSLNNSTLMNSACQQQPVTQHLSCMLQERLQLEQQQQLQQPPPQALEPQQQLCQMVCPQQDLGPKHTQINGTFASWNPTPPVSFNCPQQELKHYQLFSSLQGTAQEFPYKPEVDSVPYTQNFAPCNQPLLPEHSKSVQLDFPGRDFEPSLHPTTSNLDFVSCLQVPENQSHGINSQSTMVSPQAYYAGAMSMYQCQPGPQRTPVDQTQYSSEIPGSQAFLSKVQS
T3 sequence (P11499 whole entry partner): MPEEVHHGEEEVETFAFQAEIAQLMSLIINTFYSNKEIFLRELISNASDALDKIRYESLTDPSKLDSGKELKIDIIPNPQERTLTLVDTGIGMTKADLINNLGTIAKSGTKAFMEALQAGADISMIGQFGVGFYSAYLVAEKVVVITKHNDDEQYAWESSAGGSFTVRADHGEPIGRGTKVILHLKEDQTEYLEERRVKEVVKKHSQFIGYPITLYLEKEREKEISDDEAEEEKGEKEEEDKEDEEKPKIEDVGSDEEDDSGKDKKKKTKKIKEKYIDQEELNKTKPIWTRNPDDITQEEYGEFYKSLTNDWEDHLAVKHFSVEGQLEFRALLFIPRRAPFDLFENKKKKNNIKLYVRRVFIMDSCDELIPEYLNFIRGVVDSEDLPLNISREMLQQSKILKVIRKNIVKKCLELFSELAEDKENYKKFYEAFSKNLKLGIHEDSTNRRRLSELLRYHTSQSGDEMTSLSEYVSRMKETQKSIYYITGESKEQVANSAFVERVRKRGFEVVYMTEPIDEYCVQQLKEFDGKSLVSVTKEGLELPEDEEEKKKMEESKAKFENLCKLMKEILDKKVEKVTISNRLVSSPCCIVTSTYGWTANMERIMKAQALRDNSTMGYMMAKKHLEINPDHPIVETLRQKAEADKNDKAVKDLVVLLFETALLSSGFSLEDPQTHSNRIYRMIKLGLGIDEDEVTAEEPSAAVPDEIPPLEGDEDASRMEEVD
T3 sequence (O08915 whole entry partner): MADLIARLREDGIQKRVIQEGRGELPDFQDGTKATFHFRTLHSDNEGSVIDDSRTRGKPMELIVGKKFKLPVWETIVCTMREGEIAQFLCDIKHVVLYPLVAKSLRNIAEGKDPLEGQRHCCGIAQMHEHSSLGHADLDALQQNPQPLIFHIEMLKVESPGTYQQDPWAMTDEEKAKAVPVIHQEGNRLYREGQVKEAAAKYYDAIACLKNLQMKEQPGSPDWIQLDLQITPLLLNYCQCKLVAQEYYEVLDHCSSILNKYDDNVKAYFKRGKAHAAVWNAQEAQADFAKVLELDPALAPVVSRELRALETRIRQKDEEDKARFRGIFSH
Procedure: as §1, §2, §3

AhR [5] = biological target: T4, AhR (Cavia porcellus, UniProt Q6J287); assay: AhR induction, luciferase reporter gene (CALUX), guinea pig G16L7.5c1 cells; format: cell-based; conditions: 6 h incubation
T4 construct: cells that were stably transfected with a luciferase reporter gene; endogenous in cells; host or cells: G16L7.5c1 (guinea pig)
T4 sequence (Q6J287 1-846): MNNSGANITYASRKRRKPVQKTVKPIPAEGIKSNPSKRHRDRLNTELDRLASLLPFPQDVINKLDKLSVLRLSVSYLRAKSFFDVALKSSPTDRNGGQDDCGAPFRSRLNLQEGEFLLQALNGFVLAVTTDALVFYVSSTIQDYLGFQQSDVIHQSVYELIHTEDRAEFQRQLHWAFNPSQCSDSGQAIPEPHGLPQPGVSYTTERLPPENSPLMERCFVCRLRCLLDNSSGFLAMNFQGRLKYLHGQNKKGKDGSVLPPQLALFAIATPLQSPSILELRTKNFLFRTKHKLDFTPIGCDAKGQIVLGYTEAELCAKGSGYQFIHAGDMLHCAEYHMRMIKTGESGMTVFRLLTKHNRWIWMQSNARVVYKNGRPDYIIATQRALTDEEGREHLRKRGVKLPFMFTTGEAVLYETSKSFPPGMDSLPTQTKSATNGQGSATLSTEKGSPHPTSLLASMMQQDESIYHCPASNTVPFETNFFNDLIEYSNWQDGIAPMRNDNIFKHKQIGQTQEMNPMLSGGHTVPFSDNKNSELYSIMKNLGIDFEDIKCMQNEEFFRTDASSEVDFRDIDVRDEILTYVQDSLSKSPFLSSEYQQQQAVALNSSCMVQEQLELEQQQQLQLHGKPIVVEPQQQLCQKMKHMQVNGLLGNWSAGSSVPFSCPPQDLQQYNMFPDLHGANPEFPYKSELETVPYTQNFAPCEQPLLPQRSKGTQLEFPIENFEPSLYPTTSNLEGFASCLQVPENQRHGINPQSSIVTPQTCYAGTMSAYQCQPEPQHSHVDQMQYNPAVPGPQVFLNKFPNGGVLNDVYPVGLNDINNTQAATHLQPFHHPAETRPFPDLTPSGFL
Procedure: as §1, §2, §3

[6] = mouse H1L7.5c3 cells, 6 h incubation, read-out: EC50, 6 h Mouse

SMILES | EC50 (AhR [1]) | EC50 (AhR [2]) | reduced activity in comparison to 6-FICZ (AhR [3]) | EC50 (AhR [4]; [6]) | EC50 (AhR [5]) | EC50 (AhR [4])
OCc1c2[nH]c3ccccc3c2cc2[nH]c3ccccc3c12 [Compound 4, 6-Hydroxymethylindolo[3,2-b]carbazole] | 4.52 nM | 0.473 nM | more than 10 folds | 0.922 nM | 5.77 nM | 
Cc1c2[nH]c3ccccc3c2c(Br)c2[nH]c3ccccc3c12 [Compound 5, 6-Methyl-12-bromoindolo[3,2-b]carbazole] | 0.328 nM | 0.0598 nM |  |  | 0.0993 nM | 0.92 nM
Cc1c2[nH]c3ccccc3c2cc2[nH]c3ccccc3c12 [Compound 3, 6-methylindolo[3,2-b]carbazole] | 0.308 nM | 0.0588 nM |  | 0.91 nM | 0.0913 nM | 
O=Cc1c2[nH]c3ccccc3c2cc2[nH]c3ccccc3c12 [Compound 1, 6-Formylindolo[3,2-b]carbazole] |  | 0.0799 nM |  | 0.482 nM | 0.577 nM | 
Clc1cc2c(cc1Cl)Oc1cc(Cl)c(Cl)cc1O2 [TCDD, reference compound] | 0.57 nM | 0.059 nM |  | 0.1 nM | 0.1 nM | 
c1ccc2c(c1)[nH]c1cc3c(cc12)[nH]c1ccccc13 [Compound 2, indolo[3,2-b]carbazole] | 0.64 nM | 0.0095 nM |  | 0.98 nM | 0.174 nM | 
